In one data set the test system is A498. Kind of data set: Antiproliferative activity against human A498 cells assessed as growth inhibition at 10 uM after 48 hrs by sulforhodamine B assay relative to control. Also noted: scale not given: the % may be the effect or the level left. Format: functional. In general terms: In SRB staining, fixed cells bind dye roughly in proportion to their protein.
The subject of a further data set is T47D. As to the kind of experiment: Antiproliferative activity against human T47D cells assessed as growth inhibition at 10 uM after 48 hrs by sulforhodamine B assay relative to control. The data set is classed as functional. Also noted: scale not given: the % may be the effect or the level left.
Data set [1] can be described thus: Acute toxicity in ip dosed Swiss albino mouse assessed as lethal dose. The data set is classed as organism-based. The note with it: in vivo, read-out: ALD50.
For data set [2], the system named is HepG2. As to the kind of experiment: Anticancer activity against human HepG2 cells assessed as reduction in cell growth incubated for 24 hrs by MTT assay. Format: functional, cell-based. The note with it: HepG2, 24 h.
A further data set relates to DU-145. As to the kind of experiment: Cytotoxicity against human DU-145 cells assessed as reduction in cell viability incubated for 72 hrs by MTT assay. Format: functional, cell-based. The following applies: DU-145, 72 h. Background: Formazan colour is commonly taken as a measure of viable cells.
Data set [3] concerns PC-3. As to the kind of experiment: Cytotoxicity against human PC-3 cells assessed as reduction in cell viability incubated for 72 hrs by MTT assay. Format: functional, cell-based. The note with it: PC-3, 72 h.
In a further data set the test system is MDA-MB-435. Kind of data set: Cytotoxicity against human MDA-MB-435 cells assessed as reduction in cell growth measured for 72 hrs by MTT assay. The following applies: MDA-MB-435, 72 h. The data set is classed as functional, cell-based.
For data set [4], the system named is MCF7. As to the kind of experiment: Cytotoxicity against human MCF7 cells assessed as reduction in cell viability by SRB assay. Format: functional, cell-based.
Data set [5] deals with T1, Vascular endothelial growth factor receptor 2 (Homo sapiens, UniProt P35968). Kind of data set: Inhibition of human VEGFR2 by discoverX kinome scan assay.
T1 sequence (P35968 whole entry): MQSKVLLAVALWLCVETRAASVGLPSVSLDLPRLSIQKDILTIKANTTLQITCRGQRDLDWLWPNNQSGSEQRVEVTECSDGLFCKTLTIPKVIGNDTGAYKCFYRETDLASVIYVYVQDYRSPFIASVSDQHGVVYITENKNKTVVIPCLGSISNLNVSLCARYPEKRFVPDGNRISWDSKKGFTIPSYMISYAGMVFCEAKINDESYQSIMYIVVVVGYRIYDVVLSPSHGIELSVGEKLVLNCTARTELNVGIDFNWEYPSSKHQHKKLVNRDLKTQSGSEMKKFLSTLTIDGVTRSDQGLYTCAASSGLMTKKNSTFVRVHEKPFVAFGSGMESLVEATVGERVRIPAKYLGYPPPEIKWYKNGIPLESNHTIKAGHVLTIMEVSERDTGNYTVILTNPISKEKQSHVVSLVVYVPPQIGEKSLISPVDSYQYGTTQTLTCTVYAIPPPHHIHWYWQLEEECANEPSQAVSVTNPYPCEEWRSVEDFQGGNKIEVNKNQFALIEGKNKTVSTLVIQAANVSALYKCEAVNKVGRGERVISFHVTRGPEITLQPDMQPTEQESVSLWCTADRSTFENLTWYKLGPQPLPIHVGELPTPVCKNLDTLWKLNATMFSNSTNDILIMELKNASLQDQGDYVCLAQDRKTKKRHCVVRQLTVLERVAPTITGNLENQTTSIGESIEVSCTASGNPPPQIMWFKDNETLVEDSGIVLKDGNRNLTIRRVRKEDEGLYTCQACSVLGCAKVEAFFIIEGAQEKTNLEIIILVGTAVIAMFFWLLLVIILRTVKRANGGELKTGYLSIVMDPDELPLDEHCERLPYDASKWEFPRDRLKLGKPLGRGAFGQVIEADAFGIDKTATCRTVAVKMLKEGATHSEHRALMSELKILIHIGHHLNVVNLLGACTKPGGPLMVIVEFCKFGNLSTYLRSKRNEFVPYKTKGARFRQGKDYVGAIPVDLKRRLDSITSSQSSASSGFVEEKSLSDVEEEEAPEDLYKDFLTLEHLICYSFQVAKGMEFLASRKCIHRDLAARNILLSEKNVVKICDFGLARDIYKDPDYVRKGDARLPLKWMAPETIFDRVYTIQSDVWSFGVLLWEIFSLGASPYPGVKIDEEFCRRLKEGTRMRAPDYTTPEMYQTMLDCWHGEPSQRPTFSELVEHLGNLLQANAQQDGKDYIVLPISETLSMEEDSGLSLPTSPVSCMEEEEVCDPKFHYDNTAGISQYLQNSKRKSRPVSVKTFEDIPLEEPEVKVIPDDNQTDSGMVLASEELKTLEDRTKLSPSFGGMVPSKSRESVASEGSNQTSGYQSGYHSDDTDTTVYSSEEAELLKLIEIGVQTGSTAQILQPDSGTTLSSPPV
The subject of data set [6] is HepG2. As to the kind of experiment: Cytotoxicity against human HepG2 cells assessed as reduction in cell viability by SRB assay. The data set is classed as functional, cell-based.
Data set [7] relates to HCT-116. As to the kind of experiment: Antiproliferative activity against human HCT-116 cells assessed as reduction in cell growth by MTT assay. The data set is classed as functional, cell-based.
For data set [8], the system named is MCF7. Kind of data set: Antiproliferative activity against human MCF7 cells assessed as reduction in cell growth by MTT assay. The data set is classed as functional, cell-based.
Data set [9] has as its system HCT-116. As to the kind of experiment: Cytotoxicity against human HCT-116 cells assessed as reduction in cell viability by SRB assay. The data set is classed as functional, cell-based.
For data set [10], the system named is HepG2. Kind of data set: Antiproliferative activity against human HepG2 cells assessed as reduction in cell growth by MTT assay. Format: functional, cell-based.
The test system of another data set is HCC827. Kind of data set: Growth inhibition of human HCC827 cells. The data set is classed as functional.
Another data set relates to PC-9. As to the kind of experiment: Growth inhibition of human PC-9 cells. Format: functional.
Data set [11] deals with HCT-116. Kind of data set: Cytotoxicity against human HCT-116 cells assessed as reduction in cell viability. Format: functional, cell-based.
Data set [12] can be described thus: Cytotoxicity against African green monkey Vero cells assessed as reduction in cell viability incubated for 72 hrs by crystal violet staining based analysis. The data set is classed as toxicity, Chlorocebus sabaeus.
For data set [13], the system named is HepG2. As to the kind of experiment: Cytotoxicity against human HepG2 cells assessed as reduction in cell viability. The data set is classed as functional, cell-based.
Data set [14] deals with MCF7. As to the kind of experiment: Cytotoxicity against human MCF7 cells assessed as reduction in cell growth incubated for 48 hrs by MTT assay. The note with it: MCF7, 48 h. The data set is classed as functional, cell-based.
Data set [15] concerns PC-3. Kind of data set: Antiproliferative activity against human PC-3 cells assessed as reduction in cell growth. Format: functional, cell-based.
Data set [16] deals with PC-3. Kind of data set: Cytotoxicity against human PC-3 cells assessed as reduction in cell growth. Format: toxicity, cell-based.
A further data set has as its system HOP-92. Kind of data set: Growth inhibition of human HOP-92 cells incubated for 48 hrs by sulforhodamine B assay. Format: functional.
Data set [17] is described as follows: Cytotoxicity against human WI-38 cells assessed as reduction in cell growth. Format: toxicity, cell-based.
The next data set concerns HL-60. Kind of data set: Cytotoxicity against human HL-60 cells assessed as reduction in cell growth. The data set is classed as functional, cell-based.
In data set [18] the target is T1, Vascular endothelial growth factor receptor 2. As to the kind of experiment: Inhibition of VEGFR2 (unknown origin).
The test system of data set [19] is HepG2. As to the kind of experiment: Antiproliferative activity against human HepG2 cells. Format: functional, cell-based.
In data set [20] the target is Epidermal growth factor receptor (Homo sapiens, UniProt P00533). Kind of data set: Inhibition of EGFR (unknown origin).
Epidermal growth factor receptor, sequence (P00533 whole entry): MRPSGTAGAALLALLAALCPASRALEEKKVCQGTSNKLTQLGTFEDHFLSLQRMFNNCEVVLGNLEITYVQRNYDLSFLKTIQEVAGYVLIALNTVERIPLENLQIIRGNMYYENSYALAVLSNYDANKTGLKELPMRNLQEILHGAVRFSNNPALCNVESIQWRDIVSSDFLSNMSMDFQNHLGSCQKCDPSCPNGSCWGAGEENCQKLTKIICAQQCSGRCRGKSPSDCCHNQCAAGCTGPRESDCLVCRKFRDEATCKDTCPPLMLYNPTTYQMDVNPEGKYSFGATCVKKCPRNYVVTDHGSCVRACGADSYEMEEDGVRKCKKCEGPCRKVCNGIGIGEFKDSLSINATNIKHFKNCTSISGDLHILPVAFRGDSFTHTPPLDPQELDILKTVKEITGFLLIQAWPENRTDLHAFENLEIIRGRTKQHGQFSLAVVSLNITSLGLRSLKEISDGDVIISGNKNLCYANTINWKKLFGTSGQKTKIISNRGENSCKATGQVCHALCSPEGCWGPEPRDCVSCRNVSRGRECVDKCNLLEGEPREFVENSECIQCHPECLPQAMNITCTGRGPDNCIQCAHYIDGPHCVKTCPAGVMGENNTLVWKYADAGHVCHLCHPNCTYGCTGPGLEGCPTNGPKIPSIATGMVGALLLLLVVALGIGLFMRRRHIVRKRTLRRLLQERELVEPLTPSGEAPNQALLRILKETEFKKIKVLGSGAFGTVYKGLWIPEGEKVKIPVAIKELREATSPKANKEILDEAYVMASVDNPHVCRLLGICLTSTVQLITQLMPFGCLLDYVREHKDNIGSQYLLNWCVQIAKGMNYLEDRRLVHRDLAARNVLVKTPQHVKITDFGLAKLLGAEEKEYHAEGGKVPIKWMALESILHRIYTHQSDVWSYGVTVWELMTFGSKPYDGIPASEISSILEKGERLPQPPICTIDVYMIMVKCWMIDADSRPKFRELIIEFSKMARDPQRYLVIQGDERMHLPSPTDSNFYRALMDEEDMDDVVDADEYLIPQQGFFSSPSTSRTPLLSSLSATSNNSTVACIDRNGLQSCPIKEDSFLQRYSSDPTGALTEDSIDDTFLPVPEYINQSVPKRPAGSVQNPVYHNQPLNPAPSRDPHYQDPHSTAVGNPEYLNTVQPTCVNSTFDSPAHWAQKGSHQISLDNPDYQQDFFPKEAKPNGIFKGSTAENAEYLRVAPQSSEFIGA
The subject of data set [21] is MCF7. As to the kind of experiment: Antiproliferative activity against human MCF7 cells. The data set is classed as functional, cell-based.
A further data set deals with MDA-MB-231. Kind of data set: Antiproliferative activity against human MDA-MB-231 cells. The data set is classed as functional, cell-based.
The subject of data set [22] is HCT-116. As to the kind of experiment: Antiproliferative activity against human HCT-116 cells. Format: functional, cell-based.
A further data set relates to Caco-2. Kind of data set: Antiproliferative activity against human Caco-2 cells. Format: functional, cell-based.
Data set [23] deals with T1, Vascular endothelial growth factor receptor 2. Kind of data set: Inhibition of VEGFR2 (unknown origin) by Z'-Lyte kinase assay.

With `O=C(Nc1ccccc1)Nc1ccc(Nc2ncnc3sc4c(c23)CCOC4)cc1`, the figures for the Activity in the data set with A498 and with T47D were 77.65% and 85.5%, respectively.
As to `CCOc1ccc(Nc2nnc3c4c(cccc24)NC(=S)N3Cc2ccccc2)cc1`, the LD50 in data set [1] was above 800 mg/kg. Further, the IC50 (commonly the midpoint of a concentration-inhibition curve) in the data set with HepG2 [2] worked out at 220 nM.
With `COc1cc(-c2cc(-c3ccc4ccccc4c3)nc(NN)c2C#N)ccc1O`, the IC50 with DU-145 worked out at 8.5 nM; with PC-3 [3], 55 nM; in the data set with MDA-MB-435 it was 96 nM.
On to `O=C(N/N=C/c1ccc(Cl)cc1)c1ccc(Nc2ncnc3sc4c(c23)CCCC4)cc1`, for which the IC50 in the data set with MCF7 [4] came out at 10300 nM; in data set [5], 230 nM; with HepG2 [6], 4100 nM; with HCT-116 [7], 2800 nM; in the data set with MCF7 [8] it was 10300 nM; in the data set with HCT-116 [9] it was 2800 nM. The IC50 in the data set on HepG2 [10] was 4100 nM.
Regarding `NC(=O)CCn1cc(-c2ccc3ncnc(Nc4cc(O)c(F)cc4F)c3c2)nn1`, the GI50 – broadly, the concentration at which growth is held to half of that of the control – was determined as 1300 nM with HCC827 and 6000 nM in the data set with PC-9.
Turning to `Cc1nc2ccccc2n(CC(=O)Nc2ccc(C(=O)NCc3ccccc3)cc2)c1=O`, the IC50 with HCT-116 [11] came to 2200 nM; in the data set on HepG2 [13], 5300 nM. The IC50 at 72 h in [12] was determined as 11800 nM.
Consider `CC1=NN(c2ccc([N+](=O)[O-])cc2[N+](=O)[O-])C(=O)/C1=C\c1cn(-c2ccccc2)nc1-c1cccc([N+](=O)[O-])c1`, for which the IC50 with MCF7 [14] is 16500 nM.
As for `N#CCc1nnc(NC(=O)c2ccco2)s1`, the figures for the IC50 in the data set with PC-3 [15] and with PC-3 [16] were 9.1 nM and 68.7 nM, respectively.
In the data set on HOP-92, `Cc1ccc(S(=O)(=O)Nc2ccc(-c3cc(-c4cccc(F)c4)c(C#N)c(N)n3)cc2)cc1` displayed a GI50 of 1060 nM.
Consider `C/C(=N\NC(=S)Nc1ccccc1)c1nnn(-c2ccc(F)cc2)c1C`, for which the IC50 stood at 56600 nM in [17], 1090 nM with HL-60 and 67 nM in data set [18].
In the case of `COc1ccc(-c2cc(-c3ccc(C)cc3)nc(NN)n2)cc1`, the IC50 came to 18300 nM with HepG2 [19]; 71 nM in data set [20]; 7800 nM in the data set on MCF7 [21]; 23700 nM with MDA-MB-231; 31000 nM with HCT-116 [22]; 12800 nM in the data set on Caco-2. The same molecule came in with an IC50 in data set [18] of 98 nM.
Turning to `O=C1C(=O)N(CN2CCN(c3cc(=O)[nH]c4ccc(F)cc34)CC2)c2ccccc21`, it took 63.8 nM to reach half-maximal inhibition in data set [23] (IC50).

The values are drawn from ChEMBL document CHEMBL5500383, “Recent advances and future directions on small molecule VEGFR inhibitors in oncological conditions” (Eur J Med Chem, 2024).
